US20240166649A1, “DIHYDROPYRIMIDINE COMPOUND, PREPARATION METHOD THEREFOR AND APPLICATION THEREOF” (Shanghai Visonpharma Co., Ltd., priority 2021, published 2024)
pEC50: −log10 of the molar value.

Test system: HBV (hepatitis B virus) in HepG2.2.15 cells
Experiment: Cell-based anti-viral activity assay (HBV DNA in supernatant by quantitative PCR)
Conditions: 120 h, anti-HBV activity, HepG2.2.15 cells, 5 days, read-out: EC50 (HepG2.2.15)
Procedure: Cell-Based Anti-Viral Activity Assay
The Invention determined the anti-HBV (hepatitis B virus) activity of compounds in HepG2.2.15 cells (Table 1).
HepG2.2.15 is a cell line stably transfected with the HBV genome. HepG2.2.15 cells were cultured in DMEM (1X) with 10% fetal bovine serum (Corning), 100 U penicillin (Gibico), 100 μg/mL streptomycin (Gibico), 250 μg/mL geneticin (Gibco) and GlutaMAXTM-I medium (Invitrogen).
HepG2.2.15 cells were seeded into 96-well plates (4×10^4 cells in 100 μL of medium per well) and incubated overnight at 37° C. The test compounds were weighed and prepared as 10 mM stock solution with DMSO. The stock solutions of the compounds were diluted by a gradient of 3.16 times with DMSO, and then diluted by a gradient of 3.16 times with medium for 50 times. Finally, the diluted compound solutions were added to the cell plate with a total volume of 200 μL and the final DMSO concentration was 1%. The 96-well culture plates loaded with drugs were transferred to an incubator at 37° C. for 5 days. […] nucleic acid releasing agent was added to 96-well PCR reaction plate, and 2 μL of cell supernatant or HBV quantitative standards were added to the corresponding Wells. Centrifuged the plates to fully mix, and incubated at room temperature for 10 min to fully release nucleic acid. Quantified HBV DNA content by fluorescent quantitative PCR (CFX Connect Real-Time System) using Sanxiang Bio hepatitis B virus fluorescent quantitative diagnostic kit.
The standard curve was established by taking the logarithm of the copy number (IU/ml) of the HBV standard sample (log 10) as the abscordinate and the corresponding CT value as the ordinate. The copy number of the sample was calculated according to the corresponding CT of the positive sample and the standard curve, and the percentage of inhibition rate was calculated as follows: • % Inhibition=100-100*(sample HBV copy number−high concentration reference compound column HBV copy number)/DMSO column HBV copy number−high concentration reference compound column HBV copy number).

Going from `CCOC(=O)C1=C(CN2CCN3C(=O)N(C45CC(C(=O)NC)(C4)C5)C[C@@H]3C2)NC(c2nccs2)=N[C@H]1c1cccc(F)c1C` [Compound 26, Ethyl (S)-4-(3-Fluoro-2-Methylphenyl)-6-(((S)-2-(3-(Methylcarbamoyl)Bicyclo[1.1.1]Pentan-1-Yl)-3-Oxohexahydroimidazo[1,5-a]Pyrazin-7(1H)-Yl)Methyl)-2-(Thiazol-2-Yl)-1,4-Dihydropyrimidine-5-Carboxylate] to `CCOC(=O)C1=C(CN2CCN3C(=O)N(C45CC(C(C)C(=O)O)(C4)C5)C[C@@H]3C2)NC(c2nccs2)=N[C@H]1c1cccc(F)c1C` (stereo partly drawn) [Compound 30, 2-(3-((S)-7-(((S)-5-(Ethoxycarbonyl)-6-(3-Fluoro-2-Methylphenyl)-2-(Thiazol-2-Yl)-3,6-Dihydropyrimidin-4-Yl)Methyl)-3-Oxohexahydroimidazo[1,5-a]Pyrazin-2(3H)-Yl)Bicyclo[1.1.1]Pentan-1-Yl)Propanoic Acid], the pEC50 falls from 8.30 to 7.96 (0.34 log units). The first is the more potent here.

First: CCOC(=O)C1=C(CN2CCN3C(=O)N(C45CC(C(=O)N6CCOCC6)(C4)C5)C[C@@H]3C2)NC(c2nccs2)=N[C@H]1c1cccc(F)c1C [Compound 27, Ethyl (S)-4-(3-Fluoro-2-Methylphenyl)-6-(((S)-2-(3-(Morpholine-4-Carbonyl)Bicyclo[1.1.1]Pentan-1-Yl)-3-Oxohexahydroimidazo[1,5-a]Pyrazin-7(1H)-Yl)Methyl)-2-(Thiazol-2-Yl)-1,4-Dihydropyrimidine-5-Carboxylate]
Second: CCOC(=O)C1=C(CN2CCN3C(=O)N(C45CC(C(O)C(=O)O)(C4)C5)C[C@@H]3C2)NC(c2nccs2)=N[C@H]1c1cccc(F)c1C (stereo partly drawn) [Compound 50, 2-(3-((S)-7-(((S)-5-(Ethoxycarbonyl)-6-(3-Fluoro-2-Methylphenyl)-2-(Thiazol-2-Yl)-3,6-Dihydropyrimidin-4-Yl)Methyl)-3-Oxohexahydroimidazo[1,5-a]Pyrazin-2(3H)-Yl)Bicyclo[1.1.1]Pentan-1-Yl)-2-Hydroxyacetic Acid]
The pEC50 of the first is 0.30 log units lower: 8.22 for the first, 8.52 for the second. The second is the more potent here.

Compared with `CCOC(=O)C1=C(CN2CCN3C(=O)N(C45CC(CO)(C4)C5)C[C@@H]3C2C(=O)OCC)NC(c2nccs2)=N[C@H]1c1cccc(F)c1C` (stereo partly drawn) [Compound 31, Ethyl (8aR)-7-(((S)-5-(Ethoxycarbonyl)-6-(3-Fluoro-2-Methylphenyl)-2-(Thiazol-2-Yl)-3,6-Dihydropyrimidin-4-Yl)Methyl)-2-(3-(Hydroxymethyl)Bicyclo[1.1.1]Pentan-1-Yl)-3-Oxooctahydroimidazo[1,5-a]Pyrazine-8-Carboxylate], `CCOC(=O)C1=C(CN2CCN3C(=O)N(C45CC(CC(=O)O)(C4)C5)C[C@@H]3[C@H]2COC)NC(c2nccs2)=N[C@H]1c1cccc(F)c1C` [Compound 43, 2-(3-((8S,8aR)-7-(((S)-5-(Ethoxycarbonyl)-6-(3-Fluoro-2-Methylphenyl)-2-(Thiazol-2-Yl)-3,6-Dihydropyrimidin-4-Yl)Methyl)-8-(Methoxymethyl)-3-Oxohexahydroimidazo[1,5-a]Pyrazin-2(3H)-Yl)Bicyclo[1.1.1]Pentan-1-Yl)Acetic Acid] is 0.89 log units lower in pEC50: 7.60 for the first, 6.71 for the second.

Compared with `CCOC(=O)C1=C(CN2CCN3C(=S)N(C45CC(C(=O)O)(C4)C5)C[C@@H]3C2)NC(c2nccs2)=N[C@H]1c1cccc(F)c1C` [Compound 32, 3-((S)-7-(((S)-5-(Ethoxycarbonyl)-6-(3-Fluoro-2-Methylphenyl)-2-(Thiazol-2-Yl)-3,6-Dihydropyrimidin-4-Yl)Methyl)-3-Thioxohexahydroimidazo[1,5-a]Pyrazin-2(3H)-Yl)Bicyclo[1.1.1]Pentane-1-Carb Oxylic Acid], `CCOC(=O)C1=C(CN2CCN3C(=O)N(C45CC(C(OC)C(=O)O)(C4)C5)C[C@@H]3C2)NC(c2nccs2)=N[C@H]1c1cccc(F)c1C` (stereo partly drawn) [Compound 51, 2-(3-((S)-7-(((S)-5-(Ethoxycarbonyl)-6-(3-Fluoro-2-Methylphenyl)-2-(Thiazol-2-Yl)-3,6-Dihydropyrimidin-4-Yl)Methyl)-3-Oxohexahydroimidazo[1,5-a]Pyrazin-2(3H)-Yl)Bicyclo[1.1.1]Pentan-1-Yl)-2-Methoxyacetic Acid] is 0.66 log units lower in pEC50: 7.52 for the first, 6.86 for the second. The first is the more potent here.

First: CCOC(=O)C1=C(CN2CCN3C(=O)N(C45CC(CC(=O)O)(C4)C5)C[C@@H]3C2)NC(c2nccs2)=N[C@H]1c1cccc(F)c1Cl [Compound 34, 2-(3-((S)-7-(((R)-6-(2-Chloro-3-Fluorophenyl)-5-(Ethoxycarbonyl)-2-(Thiazol-2-Yl)-3,6-Dihydropyrimidin-4-Yl)Methyl)-3-Oxohexahydroimidazo[1,5-a]Pyrazin-2(3H)-Yl)Bicyclo[1.1.1]Pentan-1-Yl)Acetic Acid]
Second: CCOC(=O)C1=C(CN2CCN3C(=O)N(C45CC(CC(=O)O)(C4)C5)C[C@@H]3C2)NC(c2nccs2)=N[C@H]1c1ccc(F)c(F)c1 [Compound 36]
The pEC50 of the first is 0.34 log units higher: 7.66 for the first, 7.32 for the second. The first is the more potent here.

Going from `COC(=O)C1=C(CN2CCN3C(=O)N(C45CC(CC(=O)O)(C4)C5)C[C@@H]3C2)NC(c2nccs2)=N[C@H]1c1ccc(F)cc1Br` [Compound 39, 2-(3-((S)-7-(((R)-6-(2-Bromo-4-Fluorophenyl)-5-(Methoxycarbonyl)-2-(Thiazol-2-Yl)-3,6-Dihydropyrimidin-4-Yl)Methyl)-3-Oxohexahydroimidazo[1,5-a]Pyrazin-2 (3H)-Yl)Bicyclo[1.1.1]Pentane-1-Yl)Acetic Acid] to `COC(=O)C1=C(CN2CCN3C(=O)N(C45CC(CC(=O)O)(C4)C5)C[C@@H]3C2)NC(c2nccs2)=N[C@H]1c1ccc(F)c(F)c1C` [Compound 41, 2-(3-((S)-7-(((S)-6-(3,4-Difluoro-2-Methylphenyl)-5-(Methoxycarbonyl)-2-(Thiazol-2-Yl)-3,6-Dihydropyrimidin-4-Yl)Methyl)-3-Oxohexahydroimidazo[1,5-a]Pyrazin-2(3H)-Yl)Bicyclo[1.1.1]Pentan-1-Yl)Acetic Acid], the pEC50 rises from 7.49 to 8.10 (0.61 log units). The second is the more potent here.

`CCOC(=O)C1=C(CN2CCN3C(=O)N(C45CC(CC(C)(C)C(=O)O)(C4)C5)C[C@@H]3C2)NC(c2nccs2)=N[C@H]1c1ccc(F)cc1Cl` [Compound 40] and `CCOC(=O)C1=C(CN2CCN3C(=O)N(C45CC(C(C)(C)C(=O)O)(C4)C5)C[C@@H]3C2)NC(c2nccs2)=N[C@H]1c1cccc(F)c1C` [Compound 42] are within 0.2 log units of each other in pEC50: 7.92 for the first, 7.96 for the second.

Going from `CCOC(=O)C1=C(CN2CCN3C(=O)N(C45CCC(C(=O)O)(CC4)CC5)C[C@@H]3C2)NC(c2nccs2)=N[C@H]1c1ccc(F)c(F)c1C` [Compound 54] to `CCOC(=O)C1=C(CN2CCN3C(=O)N(C45CCC(CC(=O)O)(CC4)C5)C[C@@H]3C2)NC(c2nccs2)=N[C@H]1c1cccc(F)c1C` [Compound 63, 2-(4-((S)-7-(((S)-5-(Ethoxycarbonyl)-6-(3-Fluoro-2-Methylphenyl)-2-(Thiazol-2-Yl)-3,6-Dihydropyrimidin-4-Yl)Methyl)-3-Oxohexahydroimidazo[1,5-a]Pyrazin-2(3H)-Yl)Bicyclo[2.2.1]Heptan-1-Yl)Acetic Acid], the pEC50 falls from 8.52 to 7.59 (0.93 log units). The first is the more potent here.

Compound `CCOC(=O)C1=C(CN2CCN3C(=O)N(C45CCC(CC(=O)O)(CC4)C5)C[C@@H]3C2)NC(c2nccs2)=N[C@H]1c1ccc(F)cc1C` [Compound 64, 2-(4-((S)-7-(((S)-5-(Ethoxycarbonyl)-6-(4-Fluoro-2-Methylphenyl)-2-(Thiazol-2-Yl)-3,6-Dihydropyrimidin-4-Yl)Methyl)-3-Oxohexahydroimidazo[1,5-a]Pyrazin-2(3H)-Yl)Bicyclo[2.2.1]Heptan-1-Yl)Acetic Acid] has a pEC50 of 7.24.
